Reference: patent US20070060551A1, “Methods of using isothiazole derivatives to treat cancer or inflammation” (QLT, Inc., priority 2002, published 2007)

Columns and labels:
PTPN12 = target: T1, PTPN12 (Homo sapiens, UniProt Q05209); assay: PTPN12 in vitro phosphatase assay (malachite green phosphate release); format: biochemical; conditions: for % Inhibition of PTPN12: at 20 μm concentration
T1 construct: Expression of human truncated PTPN12 (PTP-PEST-N) as a fusion protein; made in house; host or cells: E. coli strain ER2566 (IMPACT vector pTWIN-II)
T1 sequence (Q05209 28-293 limits assumed): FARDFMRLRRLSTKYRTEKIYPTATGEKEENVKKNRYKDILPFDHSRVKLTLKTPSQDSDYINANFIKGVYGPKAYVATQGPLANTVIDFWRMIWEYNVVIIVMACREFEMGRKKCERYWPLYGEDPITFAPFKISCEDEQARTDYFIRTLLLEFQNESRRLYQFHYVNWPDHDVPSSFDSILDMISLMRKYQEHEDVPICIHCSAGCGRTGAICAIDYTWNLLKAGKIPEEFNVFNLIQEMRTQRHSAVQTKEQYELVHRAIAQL
Protocol: Expression of human truncated PTPN12 (PTP-PEST-N) as a fusion protein required that the cDNA be ligated into the polyclonal site situated in frame and upstream of the intein gene of the IMPACT™ expression vector pTWIN-II. The truncated version was used as it was far easier to handle and gave parallel results to the full length protein in comparison testing. For the purpose of simplicity, PTP-PEST-N will be used interchangeably with PTPN12 in these Examples.
Biochemical analysis is performed on recombinant human PTPN12 fusion protein. […] This activity is considered to be in the high range as compared to other recombinant protein tyrosine phosphatases. PTPN12 preparations were subsequently used extensively in in vitro assays for the initial discovery of compounds having the ability to inhibit PTPN12 activity.
Compounds were tested in the following assay for their ability to inhibit the activity of the desired phosphatase.
The enzyme (phosphatase) activity was determined in a reaction that measured phosphate relase from tyrosine phospho-specific peptides using a method first described by Harder et al., Biochem. J. (1994), Vol. 298, pp. 395-401. This is a non-radioactive method for measuring free phosphate by the malachite green method first described by Van Veldhoven and Mannaerts, Anal Biochem. (1987), Vol.161, pp. 45-48. 10× assay buffer (250 mM Tris:100 mM, β-Mercaptoethanol, 50 mM EDTA; pH 7.2) was diluted to 5× concentration with distilled H2O (dH2O). Then 71.4 μM of substrate working stock solution was prepared in dH2O.
In a Falcon 96 well plate the sample compound was diluted in 1% DMSO (One mL DMSO (Sigma, Cat. # D-8779) dissolved in 99 mL dH2O and stored at room temperature) such that the concentration of the sample compound working stock solution is ten times the final desired concentration of the compound in the assay.
The negative control consisted of 5 μl 1% DMSO and 35 μL substrate working stock solution and 10 μL diluted enzyme, per well), and was placed in the first column of wells on the plate. The last column of wells on the plate was reserved for an enzyme blank, which consisted of 5 μL 1% DMSO, 35 μL substrate working stock solution, and 10 μL 5× assay buffer, per well. Test samples were placed in columns 2-11 and consisted of 5 μL sample in 1% DMSO, 35 μL substrate working stock solution, and 10 μL of diluted enzyme, per well, at the desired concentration. Using the repeater function of a Biohit™ multichannel pipettor, 5 μL of 100 μM sample from the Falcon plate columns was added to corresponding Costar™ assay plate columns.
Using a multichannel pipettor, 35 μL of 71.4 μM ppC-SRC 60 substrate was added to all assay wells, then 10 μL of appropriately diluted enzyme was added to the wells on a column by column basis, pausing 5 seconds between columns. Timing started at the first addition.
The assay plate was incubated at room temperature (21° C.) for 15 minutes. The reaction was “stopped” by adding 100 μL colour reagent on a column by column basis, pausing 5 seconds between columns. Colour was allowed to develop for at least 15 minutes, but no longer than two hours, at room temperature. The plate was “read” on Bio-tek Instruments EL312e™ microplate Bio-Kinetics™ reader at 590 nm and the data collected as per instrument manual.
The blank and negative controls were read, and blanks were subtracted from the average of negative control values and sample values, and the % inhibition was expressed by the following formula: % Inhibition=100−[corrected sample reading/corrected Negative Control reading*100].

various cell lines = assay: Cytotoxicity assay (calcein AM cell viability); format: cell-based; conditions: approximately 24 hours incubation
From the text: This procedure is used to assess the effects compounds have on various cell lines with respect to cell viability. Cell viability is quantified using calcein AM and measuring its conversion to a fluorescent product (calcein) with a fluorimeter.
The principle of this assay is based on the presence of ubiquitous intracellular esterase activity found in live cells. By enzymatic reaction of esterase, non-fluorescent cell-permeant calcein AM is converted to the intensely fluorescent calcein. The polyanionic dye calcein is retained within live cells, producing a green fluorescence in live cells. […]
Cells were collected from tissue culture flasks and trypsinized, centrifuged, resuspended and counted. […]
The calcein AM solution is prepared by added 50 μg of calcein AM crystal (m.w. =994.87 g/mol, Molecular Probes, Eugene, Oreg.) and Anhydrous DMSO (Sigma Aldrich) to make 1 mM stock and diluting stock to 2× the final desired concentration in 1× DPBS just before the assay. […] Fluorescence data was read and recorded (Fluoroskan Ascent® FL fluorimeter (excitation˜485nm, emission˜527nm)).
The values for replicates (usually six) are averaged and % inhibition is calculated as follows: % inhibition=100−[(AVG treatment−AVG positive control)/(AVG negative control−AVG positive control)*100]

caspase-3 = target: T2, caspase-3 (Homo sapiens, UniProt P42574); assay: Caspase-3 selectivity assay (Calbiochem kit, colorimetric); format: biochemical
T2 construct: purchased Calbiochem
T2 sequence (P42574 29-175 limits assumed): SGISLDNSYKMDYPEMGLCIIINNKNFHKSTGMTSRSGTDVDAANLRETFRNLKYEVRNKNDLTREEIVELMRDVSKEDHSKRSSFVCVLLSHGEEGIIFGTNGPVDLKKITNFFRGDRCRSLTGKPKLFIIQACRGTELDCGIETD
T2 sequence (P42574 176-277 limits assumed): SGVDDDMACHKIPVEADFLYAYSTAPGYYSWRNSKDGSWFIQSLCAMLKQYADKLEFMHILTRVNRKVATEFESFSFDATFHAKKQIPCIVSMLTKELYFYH
From the text: This is a selectivity assay, which provides information about the specificity of the compounds. A cysteine residue located within the active pocket of the catalytic domain that is conserved between the […] like caspase-3 and the protein tyrosine phosphatases like PTPN12 has a thiol group within this cysteine amino acid that may interact with specific R-groups with inhibiting compounds with in vitro enzyme inhibiting activity. Also, caspase inhibition can prevent apoptosis from occurring in some cases via the caspase cascade. As the potential for cross-inhibitory activity and nonselectivity exists, the caspase-3 assay is performed on PTN12 inhibitors.
The Calbiochem caspase-3 assay kit was utilized according to package insert instructions. The assay is useful for screening for caspase-3 inhibitors measuring the protease activity of caspase-3 and other caspase-3-like activities. Cleavage is monitored calorimetrically by measuring the increase in absorbance at 405 nm. Assays were performed in a 96-well microtiter plate format.

CSc1nsc(SC)c1C(=O)N1CCCCC1 [(3,5-Bis-methylsulfanyl-isothiazol-4-yl)-piperidin-1-yl-methanone]
% Inhibition of PTPN12 (PTPN12): 51%

CS(=O)(=O)c1nsc(S(C)(=O)=O)c1C(=O)NC(=O)Nc1ccccc1Cl [1-(3,5-Bis-methanesulfonyl-isothiazole-4-carbonyl)-3-(2-chloro-phenyl)-urea]
% Inhibition of PTPN12 (PTPN12): 63%

CSc1nsc(SCc2ccccc2)c1C(N)=O [5-Benzylsulfanyl-3-methylsulfanyl-isothiazole-4-carboxylic acid amide]
cytotoxicity (cell viability, calcein AM) (various cell lines): no cytotoxicity | IC50 (PTPN12; PTPN12, unit inferred): 1500 nM | inhibition at 20 µM (PTPN12; at 20 μM (Table 2)): 94% | % Inhibition of Caspase 3 (caspase-3; at 10 μm): 4 at 10 μm % | % Inhibition of Caspase 3 (caspase-3; at 100 μm): 14 at 100 μm %

N#Cc1c(SCC(=O)Nc2ccc(S(N)(=O)=O)cc2)nsc1SCC(=O)Nc1ccc(S(N)(=O)=O)cc1 [2-{4-Cyano-3-[(4-sulfamoyl-phenylcarbamoyl)-methylsulfanyl]-isothiazol-5-ylsulfanyl}-N-(4-sulfamoyl-phenyl)-acetamide]
% Inhibition of PTPN12 (PTPN12): 73%

CCS(=O)(=O)CCSc1nsc(SCCS(=O)(=O)CC)c1C#N [3,5-Bis-(2-ethanesulfonyl-ethylsulfanyl)-isothiazole-4-carbonitrile]
% Inhibition of PTPN12 (PTPN12): 60%
